Test results from patent US11938218B2, “High density peptide polymers” (The Regents of the University of California, priority 2014, dated 2024).
Ends that are not written are not given here. * marks the point of attachment. NorAha = N-(hexanoic acid)-cis-5-norbornene-exo-dicarboximide, O=C1[C@@H]2[C@H](C(=O)N1CCCCCC(=O)*)[C@H]1C=C[C@@H]2C1; fluorescein = 5(6)-carboxyfluorescein

Tests used:
[1] = system: trypsin, chymotrypsin and Pronase; test: RP-HPLC analysis of CPP proteolysis (intact material after protease treatment); format: in vitro ADME; conditions: 1 μM protease, 20 min
Description: The extent of proteolytic degradation of the Tat peptide, polymer and particle by trypsin (Gibco Life Tech., cat. #15090-046), a-chymotrypsin (Fisher Scientific, cat. #ICN1522722) and Pronase (Roche, cat. #10165921001) was assessed by comparison of chromatograms in RP-HPLC. I n these experiments, the material at the indicated concentration was incubated with each protease (at 1 μM) for 20 min, and then the enzymes were heat denatured at 65° C. for 15 min, and the solution was immediately injected onto an analytical RP-HPLC. […] Note that the standard curves for the polymer and particle will be biased due to the fact that after cleavage, the polymer backbone and fluorophore should remain intact, and will comprise part of the measured peak area.
Tat-containing materials, at the same concentration used in flow cytometery and confocal microscopy studies described above (2.5 M), were challenged for 20 min with various proteases at high enzyme concentration (˜1 M) prior to determining the extent of proteolytic cleavage and residual bioactivity. Such activity was assayed by three separate methods: reverse-phase high-performance liquid chromatography (RP-HPLC), flow cytometry, and confocal microscopy. […] The bioactivity of enzymatically digested materials was then assessed in cellular assays by both flow cytometry and confocal microscopy.

chymotrypsin = chymotrypsin (Bos taurus, UniProt P00766); test: Time course of chymotrypsin treatment assayed by RP-HPLC; conditions: after 20 minutes of incubation with chymotrypsin (1 μM)
HeLa cells [2] = test: Cellular uptake in HeLa cells by flow cytometry (Tat, Arg8, guanidinium materials and controls); format: cell-based; conditions: 30 min incubation, DMEM with 10% FBS
HeLa cells [3] = test: CellTiter-Blue cell viability assay, 72 hrs; conditions: for LD50: data fit to the Hill equation
Description: The cytotoxicity of materials was assessed using the CellTiter-Blue® assay (Promega, cat #G8081), which measures the metabolic reduction of resazurin to resorufin via fluorescence. For these studies, HeLa cells were plated at a density of 3,500 cells per well of a 96-well plate 18 hrs prior to treatment. Materials dissolved in DPBS at 10× the desired concentrations were added to the wells along with a 10% DMSO positive control. Cells were incubated for 72 hrs at 37° C. Note that concentration for all toxicity measurements is with respect to peptide concentration to ensure that all peptides and polymers are fairly compared with respect to their therapeutic components. […] The medium was removed and 80 μL of fresh medium lacking phenol red was added. To this was added 20 μL of the CellTiter-Blue® reagent and the cells were then incubated for 2 hrs prior to measuring fluorescence using 560 nm excitation and 590 nm emission. The fluorescence measurements were corrected for background fluorescence from the CellTiter-Blue® reagent by subtracting the fluorescence reading of wells treated with the reagent in the absence of cells. Fluorescence values were then referenced as a percentage of the value obtained for the DPBS vehicle control.

HeLa cells [4] = test: Cellular uptake in HeLa cells by flow cytometry (GSGSG-derived and KLA polymers); format: cell-based; conditions: 2.5 μM with respect to fluorophore, 30 min
Description: HeLa cells were plated at a density of 90,000 cells per well of a 24-well plate 18 hrs prior to treatment with the material of interest. Materials dissolved in Dulbecco's Phosphate Buffered Saline (DPBS without Ca2+ or Mg2+; Corning Cellgro, cat. #21-031-CM) at 10× the desired concentration (where concentration is with respect to fluorophore concentration to ensure propare comparison of each molecular transporter) were added to the wells and the plates were incubated for 30 min at 37° C. The medium was then removed and the cells were washed 2× with DPBS and then incubated 3× for five minutes each with heparin (0.5 mg/mL in DPBS; Affymetrix, cat. #16920) to remove any membrane-bound, non-internalized material, and finally rinsed again with DPBS. The cells were then trypsinized (0.25% trypsin in DPBS; Gibco Life Tech., cat. #15090-046) for 10 min, cold medium was added, and the cells were transferred to Eppendorfs. The suspended cells were centrifuged to pellets and then resuspended in a minimal amount of cold DPBS. Flow cytometry data (10,000 events on three separate cultures) was then acquired.

HeLa cells [5] = test: Pharmacological and thermal probes of cellular uptake mechanisms by flow cytometry; format: cell-based; conditions: dynasore 80 μM, MβCD 9.5 mM, 4° C.
Description: HeLa cells were plated at a density of 90,000 cells per well of a 24-well plate 18 h prior to treatment. Materials dissolved in Dulbecco's Phosphate Buffered Saline (DPBS without Ca^2+ or Mg^2+; Corning Cellgro, cat. #21-031-CM) at 10× the desired concentration were added to the wells, and the plates were incubated for 30 min at 37° C. The medium was then removed, and the cells were washed twice with DPBS and then incubated three times for 5 min with heparin (0.5 mg/mL in DPBS; Affymetrix, cat. #16920), and finally rinsed again with DPBS. The cells were then trypsinized (0.25% trypsin; Gibco Life Tech., cat. #15090-046) for 10 min, cold medium was added, and the cells were transferred to Eppendorfs, centrifuged to pellets and then resuspended in a minimal amount of cold DPBS. Fluorescence activated cell sorting data (10000 events on three separate cultures) was acquired on an Accuri C6 flow cytometer set to default “3 blue 1 red” configuration with standard optics and slow fluidics (14 μL/min). […] The cells were then incubated, prepared and analyzed by flow cytometry as described above. […] Data is reported as the normalized mean fluorescence, which are the mean fluorescence yielded by the material/the mean fluorescence from the vehicle control. […]

HeLa cells [6] = test: Live-cell confocal microscopy (GSGSG-derived and KLA polymers); format: cell-based; conditions: 2.5 μM with respect to fluorophore
[7] = system: CC(C)C[C@H](NC(=O)[C@H](Cc1c[nH]cn1)NC(=O)[C@H](C)NC(=O)[C@@H]1CCCN1C(=O)[C@H](CCCNC(=N)N)NC(=O)[C@H](CCC(=O)NCCNc1cccc2c(S(=O)(=O)O)cccc12)NC(=O)CN1C(=O)[C@@H]2[C@H](C1=O)[C@H]1C=C[C@@H]2C1)C(=O)N[C@@H](CCCNC(=N)N)C(=O)N[C@@H](CC(=O)O)C(=O)N[C@@H](CO)C(=O)NCC(=O)N[C@@H](CCCCNC(=O)c1ccc(N=Nc2ccc(N(C)C)cc2)cc1)C(=O)NCC(=O)N[C@@H](CO)C(=O)NCC(=O)N[C@@H](CO)C(=O)NCC(N)=O; test: purified protein, by the assay type; conditions: other: Michaelis-Menten plot, cleavage by MT1-MMP; pH 7.4
[8] = 72 hrs, concentration with respect to peptide

**Q.** What does the source list for `N=C(N)NCCC[C@H](NC(=O)[C@H](CCCNC(=N)N)NC(=O)[C@H](CCCNC(=N)N)NC(=O)[C@H](CCC(N)=O)NC(=O)[C@H](CCCNC(=N)N)NC(=O)[C@H](CCCNC(=N)N)NC(=O)[C@H](CCCCN)NC(=O)[C@H](CCCCN)NC(=O)[C@H](CCCNC(=N)N)NC(=O)CNC(=O)[C@H](Cc1ccc(O)cc1)NC(=O)[C@@H](N)CCCCNC(=O)c1ccc2c(c1)C(=O)OC21c2ccc(O)cc2Oc2cc(O)ccc21)C(N)=O` [Tat peptide]?
**A.** proteolysis by RP-HPLC after protease treatment (in words) [1]: complete consumption; material remaining, of the starting concentration (chymotrypsin): less than 10%

**Q.** “Arg8 polymer: fluorescein end-labeled ROMP homopolymer of NorAha-Arg8 monomer, DP 8, deprotected (NorAha-RRRRRRRR-NH2; also: ROMP homopolymer, DP 8, fluorescein end label on polymer)” was tested. Which “cellular uptake by flow cytometry (in words)” value (“cellular uptake” for short) (HeLa cells [2]) did it give?
**A.** responses similar to those of the guanidinium polymer

**Q.** With GSGSG56-b-OEG28 [GSGSG, m ~60] as the molecule, how does the “cytotoxicity (in words)” value (HeLa cells [3]; at concentrations up to 1 mM) read?
**A.** No cytotoxicity

**Q.** For GSGSGKK61-b-OEG30 [GSGSGKK, m ~60], which “cytotoxicity (in words)” value (HeLa cells [3]; at concentrations up to 1 mM) is on record?
**A.** No cytotoxicity

**Q.** Which “cellular uptake” value (HeLa cells [4]) does the source give for “GSGSGR71-b-OEG26 (also: ROMP block copolymer, Arg block DP 71, OEG block DP 26) [GSGSGR, m ~60]” here?
**A.** better intracellular penetration

**Q.** With “GSGSGRR57-b-OEG13 (not fully specified; also: ROMP polymer backbone, 57 repeats of peptide, OEG block, 13 units) [GSGSGRR, m ~60]” as the molecule, how does the “cellular uptake” value (HeLa cells [4]) read?
**A.** better intracellular penetration

**Q.** And the “cytotoxicity (in words)” value (HeLa cells [3]; at concentrations up to 1 mM)?
**A.** No cytotoxicity

**Q.** For “K(5/6-Flu)RRRRRRRR-NH2 (K(fluorescein)RRRRRRRR-NH2) [Arg8 peptide, fluorescein-labeled canonical cell penetrating peptide Arg8]”, which “effect of pharmacological and thermal inhibition on flow cytometry readings” value (HeLa cells [5]) is on record?
**A.** only a small effect

**Q.** For KLA6 [KLA full length, m ~5], which LD50 (HeLa cells [3]; [8]) is on record?
**A.** 12.5 µM

**Q.** KLA11 [KLA full length, m ~10] was tested. Which LD50 (HeLa cells [3]; [8]) did it give?
**A.** 25 µM

**Q.** For KLA14 [KLA full length, m ~15], which LD50 (HeLa cells [3]; [8]) is on record?
**A.** 30 µM

**Q.** What does the source list for “KLA(fragment)11 (KLAKLAK; also: ROMP polymer, 11 repeats) [KLA fragment, m ~10]”?
**A.** cellular uptake by flow cytometry (in words) (HeLa cells [4]): ability to enter cells; internalization and localization by live-cell confocal microscopy (in words) (HeLa cells [6]): a mixture of diffuse and punctate fluorescence; cytotoxicity (in words) (HeLa cells [3]; [8]): negligible toxicity

**Q.** Which results are given for “KLAKLAKKLAKLAK (KLAKLAKKLAKLAK-NH2; also: fluorescein-lysine, position not given here) [KLA peptide, reference compound]”?
**A.** cellular uptake by flow cytometry (in words) (HeLa cells [4]): indistinguishable from that of the vehicle control; cytotoxicity (in words) (HeLa cells [3]; [8]): no cytotoxicity was detected

**Q.** What does the source list for MT1-MMP (Homo sapiens)?
**A.** Km [7]: 11 µM; kcat/Km [7]: 8670 M⁻¹ s⁻¹

**Q.** R52-b-OEG20 [R control, m ~60] was tested. Which “internalization and localization by live-cell confocal microscopy (in words)” value (HeLa cells [6]) did it give?
**A.** a mixture of diffuse and punctate fluorescence
